In brackets after ≈: the same amount, converted by molar mass.
Experiments:
[1] = biological target: T1, Cyclin-dependent kinase 5/CDK5 activator 1 (Homo sapiens, UniProt Q00535); assay: Inhibition of full length N-terminal GST fused human CDK5(1 to 292 residues)/ p25 (99 to 307 residues) expressed in baculovirus expression system using FL peptide as substrate preincubated for 30 mins followed by substrate addition further incubated for 60 mins by EZ reader method
CDK2/Cyclin A2 = CDK2/Cyclin A2 (Homo sapiens, UniProt P24941); assay: Inhibition of full length N-terminal GST tagged human CDK2(1 to 298 residues)/CyclinA2 (1 to 432 residues) expressed in baculovirus expression system using FL peptide as substrate preincubated for 30 mins followed by substrate addition further incubated for 120 mins by EZ reader method
Homo sapiens [2] = species: Homo sapiens; assay: Selectivity ratio of IC50 for inhibition of full length N-terminal GST tagged human CDK2(1 to 298 residues)/CyclinA2 (1 to 432 residues) to IC50 for inhibition of full length N-terminal GST fused human CDK5(1 to 292 residues)/ p25 (99 to 307 residues)
CDK6/cyclin D3 = CDK6/cyclin D3 (Homo sapiens, UniProt Q00534); assay: (§1) Inhibition of full length N-terminal GST fused human CDK6 (1 to 326 residues)/CyclinD3 (1 to 292 residues) expressed in baculovirus expression system using FL peptide as substrate preincubated for 30 mins followed by substrate addition and further incubated for 120 mins by EZ reader method
CDK7/Cyclin H/MNAT1 = CDK7/Cyclin H/MNAT1 (Homo sapiens, UniProt P50613); assay: as §1, with “CDK7” for “CDK6”, “346 residues)/CyclinH” for “326 residues)/CyclinD3”, “323 residues)/ MAT1 (1 to 309” for “292”, “90” for “120”
CDK9/cyclin T1 = CDK9/cyclin T1 (Homo sapiens, UniProt P50750); assay: as §1, with “CDK9(1 to 372 residues)/ His- tagged CyclinT1” for “CDK6”, “726” for “326 residues)/CyclinD3 (1 to 292”, “90” for “120”
Homo sapiens [3] = species: Homo sapiens; assay: Selectivity ratio of IC50 for human CDK6 to IC50 for human CDK5
Homo sapiens [4] = species: Homo sapiens; assay: Selectivity ratio of IC50 for human CDK7 to IC50 for human CDK5
Homo sapiens [5] = species: Homo sapiens; assay: Selectivity ratio of IC50 for human CDK9 to IC50 for human CDK5
[6] = Kinetic aqueous solubility of compound in PBS at pH 7.4 incubated for 2 hrs by LC-MS/MS analysis; format: physicochemical; settings: read-out: Kinetic_solubility
P-gp = assay: Substrate activity at P-gp in dog MDCKII-MDR1 cells assessed as efflux ratio of permeability at 1 uM incubated for 120 mins; format: ADME, cell-based, Canis lupus familiaris; settings: MDCK-MDR1
[7] = Apparent permeability across apical to basolateral side in dog MDCKII-MDR1 cells at 1 uM incubated for 120 mins; format: ADME, cell-based, Canis lupus familiaris; settings: MDCK-MDR1
[8] = Plasma protein binding in Sprague-Dawley rat at 1 uM incubated for 6 hrs by equilibrium dialysis based LC-MS/MS analysis; format: ADME, cell-free; settings: read-out: PPB (converted)
[9] = Metabolic stability human hepatocytes assessed as intrinsic clearance at 1 uM measured up to 120 mins by LC-MS/MS analysis; format: ADME, cell-based, Hepatocyte; settings: read-out: CLH
[10] = Metabolic stability in CD-1 mouse hepatocytes assessed as intrinsic clearance at 1 uM measured up to 120 mins by LC-MS/MS analysis; format: ADME, cell-based, Hepatocyte; settings: read-out: CLH
[11] = Metabolic stability in Sprague-Dawley rat hepatocytes assessed as intrinsic clearance at 1 uM measured up to 120 mins by LC-MS/MS analysis; format: ADME, cell-based, Hepatocyte; settings: read-out: CLH
[12] = Clearance in Sprague-Dawley rat at 1 mg/kg, iv measured upto 24 hrs by LC-MS/MS analysis; format: ADME, organism-based; settings: in vivo
[13] = Volume of distribution at steady state in Sprague-Dawley rat at 1 mg/kg, iv measured upto 24 hrs by LC-MS/MS analysis; format: ADME, organism-based; settings: in vivo, read-out: Vdss
[14] = Half life in Sprague-Dawley rat at 1 mg/kg, iv measured upto 24 hrs by LC-MS/MS analysis; format: ADME, organism-based; settings: in vivo
[15] = AUC (0 to 24 hrs) in Sprague-Dawley rat at 1 mg/kg, iv measured upto 24 hrs by LC-MS/MS analysis; format: ADME, organism-based; set-up: route intravenous, dose 1 mg/kg, time <=24; settings: in vivo
[16] = Cmax in Sprague-Dawley rat at 3 mg/kg, po measured upto 24 hrs by LC-MS/MS analysis; format: ADME, organism-based; set-up: route oral, dose 3 mg/kg, time <=24; settings: in vivo
[17] = AUC (0 to 24 hrs) in Sprague-Dawley rat at 3 mg/kg, po measured upto 24 hrs by LC-MS/MS analysis; format: ADME, organism-based; set-up: route oral, dose 3 mg/kg, time <=24; settings: in vivo
[18] = Oral bioavailability in Sprague-Dawley rat at 3 mg/kg measured upto 24 hrs by LC-MS/MS analysis; format: ADME, organism-based; settings: in vivo
[19] = Cmax in Sprague-Dawley rat at 10 mg/kg, po measured upto 24 hrs by LC-MS/MS analysis; format: ADME, organism-based; set-up: route oral, dose 10 mg/kg, time <=24; settings: in vivo
[20] = AUC (0 to 24 hrs) in Sprague-Dawley rat at 10 mg/kg, po measured upto 24 hrs by LC-MS/MS analysis; format: ADME, organism-based; set-up: route oral, dose 10 mg/kg, time <=24; settings: in vivo
[21] = Oral bioavailability in Sprague-Dawley rat at 10 mg/kg measured upto 24 hrs by LC-MS/MS analysis; format: ADME, organism-based; settings: in vivo
[22] = biological target: T1, Cyclin-dependent kinase 5/CDK5 activator 1; assay: Inhibition of Nano-Luc fused human full length CDK5/P35 transfected in HEK293 cells incubated for 1 hr by NanoBRET assay; format: cell-based
HEK-293T = assay: Antiproliferative activity against human HEK293T cells assessed as cell growth inhibition incubated for 48 hrs; format: functional, cell-based

T1 sequence (Q00535 whole entry, the tested form may be a part): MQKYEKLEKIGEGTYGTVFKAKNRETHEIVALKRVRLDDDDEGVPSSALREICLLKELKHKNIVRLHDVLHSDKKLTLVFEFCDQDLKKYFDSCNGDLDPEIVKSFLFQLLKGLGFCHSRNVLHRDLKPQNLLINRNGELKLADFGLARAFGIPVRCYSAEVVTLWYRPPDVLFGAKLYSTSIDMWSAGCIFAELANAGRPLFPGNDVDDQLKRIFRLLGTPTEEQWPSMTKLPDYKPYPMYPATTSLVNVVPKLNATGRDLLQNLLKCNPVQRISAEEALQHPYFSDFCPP
T1 sequence (Q15078 whole entry, further chain, the tested form may be a part): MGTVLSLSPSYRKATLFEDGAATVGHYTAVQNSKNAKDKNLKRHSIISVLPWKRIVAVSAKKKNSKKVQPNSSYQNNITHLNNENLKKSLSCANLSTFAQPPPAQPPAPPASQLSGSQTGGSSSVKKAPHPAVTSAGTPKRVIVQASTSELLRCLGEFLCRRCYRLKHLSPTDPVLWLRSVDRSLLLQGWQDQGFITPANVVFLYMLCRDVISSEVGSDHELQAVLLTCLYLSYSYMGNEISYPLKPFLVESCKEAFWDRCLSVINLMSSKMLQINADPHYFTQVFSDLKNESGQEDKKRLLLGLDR
CDK9/cyclin T1, sequence (O60563 whole entry, the tested form may be a part): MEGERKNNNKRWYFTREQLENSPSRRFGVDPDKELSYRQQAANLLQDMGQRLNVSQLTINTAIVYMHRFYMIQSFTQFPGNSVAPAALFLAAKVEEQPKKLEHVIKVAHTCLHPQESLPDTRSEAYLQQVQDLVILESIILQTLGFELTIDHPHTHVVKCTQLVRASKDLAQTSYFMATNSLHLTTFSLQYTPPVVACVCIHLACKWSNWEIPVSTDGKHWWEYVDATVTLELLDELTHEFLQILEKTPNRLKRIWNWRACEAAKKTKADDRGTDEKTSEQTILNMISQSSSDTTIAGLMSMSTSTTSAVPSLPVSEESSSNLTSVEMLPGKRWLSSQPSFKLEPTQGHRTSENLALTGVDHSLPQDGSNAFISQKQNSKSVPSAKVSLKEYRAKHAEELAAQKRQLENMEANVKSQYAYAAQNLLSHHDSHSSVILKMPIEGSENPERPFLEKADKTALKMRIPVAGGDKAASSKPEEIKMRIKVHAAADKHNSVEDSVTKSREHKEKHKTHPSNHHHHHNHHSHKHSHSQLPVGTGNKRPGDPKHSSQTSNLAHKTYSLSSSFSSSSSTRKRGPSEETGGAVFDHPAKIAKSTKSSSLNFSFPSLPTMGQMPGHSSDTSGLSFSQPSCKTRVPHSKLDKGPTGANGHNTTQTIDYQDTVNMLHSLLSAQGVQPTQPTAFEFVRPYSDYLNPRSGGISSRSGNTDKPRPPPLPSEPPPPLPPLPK
CDK9/cyclin T1, sequence (P50750 whole entry, the tested form may be a part): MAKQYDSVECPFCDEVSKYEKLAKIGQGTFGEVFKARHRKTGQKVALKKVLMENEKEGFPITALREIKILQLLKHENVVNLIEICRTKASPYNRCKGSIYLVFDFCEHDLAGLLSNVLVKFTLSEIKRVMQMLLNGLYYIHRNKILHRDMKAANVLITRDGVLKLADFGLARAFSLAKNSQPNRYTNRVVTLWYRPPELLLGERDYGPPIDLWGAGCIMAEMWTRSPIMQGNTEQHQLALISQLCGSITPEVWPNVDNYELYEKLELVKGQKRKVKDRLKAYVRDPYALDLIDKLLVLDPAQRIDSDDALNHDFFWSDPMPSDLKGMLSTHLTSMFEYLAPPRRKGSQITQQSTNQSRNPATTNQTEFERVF
CDK6/cyclin D3, sequence (P30281 whole entry, the tested form may be a part): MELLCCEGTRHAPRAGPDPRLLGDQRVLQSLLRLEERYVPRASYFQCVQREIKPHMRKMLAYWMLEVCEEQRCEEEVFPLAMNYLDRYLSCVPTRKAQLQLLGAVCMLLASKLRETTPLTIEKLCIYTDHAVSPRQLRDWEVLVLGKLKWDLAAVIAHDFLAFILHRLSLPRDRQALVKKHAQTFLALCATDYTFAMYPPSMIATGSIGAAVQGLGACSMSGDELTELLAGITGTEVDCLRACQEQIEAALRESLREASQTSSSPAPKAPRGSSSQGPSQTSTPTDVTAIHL
CDK6/cyclin D3, sequence (Q00534 whole entry, the tested form may be a part): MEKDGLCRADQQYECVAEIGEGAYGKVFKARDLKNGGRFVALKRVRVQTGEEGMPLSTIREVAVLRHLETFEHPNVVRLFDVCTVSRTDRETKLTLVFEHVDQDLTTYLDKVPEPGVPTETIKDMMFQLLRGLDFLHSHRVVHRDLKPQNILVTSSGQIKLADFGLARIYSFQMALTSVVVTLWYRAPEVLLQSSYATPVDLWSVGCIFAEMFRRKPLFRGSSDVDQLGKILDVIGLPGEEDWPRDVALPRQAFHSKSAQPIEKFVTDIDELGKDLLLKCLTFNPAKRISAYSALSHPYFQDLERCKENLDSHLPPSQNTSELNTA
CDK7/Cyclin H/MNAT1, sequence (P51946 whole entry, the tested form may be a part): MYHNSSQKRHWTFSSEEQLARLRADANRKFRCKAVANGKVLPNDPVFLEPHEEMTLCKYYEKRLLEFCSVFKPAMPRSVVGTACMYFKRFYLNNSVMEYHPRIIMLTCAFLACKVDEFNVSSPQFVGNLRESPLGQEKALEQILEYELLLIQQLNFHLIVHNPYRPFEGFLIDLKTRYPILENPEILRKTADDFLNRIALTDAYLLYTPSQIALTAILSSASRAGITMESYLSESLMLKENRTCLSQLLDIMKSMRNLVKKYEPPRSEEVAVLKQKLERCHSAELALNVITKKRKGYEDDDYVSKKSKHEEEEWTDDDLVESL
CDK7/Cyclin H/MNAT1, sequence (P50613 whole entry, the tested form may be a part): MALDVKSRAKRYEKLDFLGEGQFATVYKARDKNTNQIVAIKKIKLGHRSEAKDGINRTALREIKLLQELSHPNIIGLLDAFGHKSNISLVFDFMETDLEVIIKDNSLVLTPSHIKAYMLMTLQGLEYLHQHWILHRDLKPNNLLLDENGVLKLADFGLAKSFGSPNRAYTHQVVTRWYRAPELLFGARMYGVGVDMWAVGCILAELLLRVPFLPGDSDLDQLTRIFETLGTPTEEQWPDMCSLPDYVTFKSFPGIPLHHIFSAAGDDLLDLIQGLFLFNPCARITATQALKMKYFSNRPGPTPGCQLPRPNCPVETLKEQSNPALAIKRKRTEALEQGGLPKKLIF
CDK7/Cyclin H/MNAT1, sequence (P51948 whole entry, further chain, the tested form may be a part): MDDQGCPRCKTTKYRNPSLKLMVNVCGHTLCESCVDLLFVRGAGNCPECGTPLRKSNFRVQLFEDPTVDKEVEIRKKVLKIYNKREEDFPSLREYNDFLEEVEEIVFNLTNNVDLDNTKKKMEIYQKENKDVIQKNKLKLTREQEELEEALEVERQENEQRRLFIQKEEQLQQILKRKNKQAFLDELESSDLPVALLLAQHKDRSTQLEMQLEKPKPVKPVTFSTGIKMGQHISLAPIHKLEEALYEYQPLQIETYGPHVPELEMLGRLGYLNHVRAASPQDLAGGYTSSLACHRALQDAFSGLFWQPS

Row | SMILES | IC50 [1] | IC50 (CDK2/Cyclin A2) | Ratio IC50 (Homo sapiens [2]) | IC50 (CDK6/cyclin D3) | IC50 (CDK7/Cyclin H/MNAT1) | IC50 (CDK9/cyclin T1) | solubility kinetic at 2 h [6] | efflux ratio at 2 h, 1 µM (P-gp) | Papp A→B at 2 h, 1 µM [7] | fraction unbound at 6 h, 1 µM [8] | CLint scaled at 1 µM [9] | CLint scaled at 1 µM [10] | CLint scaled at 1 µM [11] | clearance [12] | Vd [13] | half-life [14] | AUC(0-t) [15] | Cmax [16] | AUC(0-t) [17] | bioavailability [18] | also measured
1 | CN1CCC([C@@](C)(O)c2ccc3cnc(Nc4cc(C(F)(F)F)ncc4F)cc3n2)CC1 | 2.3 nM | 211 nM | 92 | 3200 nM | 718 nM | 894 nM | 259 µM (≈ 116 µg/mL) | 9 | 18 ×10⁻⁶ cm/s | 0.37 | 13 mL/min/kg | 89 mL/min/kg | 17 mL/min/kg | 12 mL/min/kg | 7.3 L/kg | 7.6 h | 1300 ng·h/mL | 83 ng/mL | 999 ng·h/mL | 25% | Ratio IC50 (Homo sapiens [3]): 1390; Ratio IC50 (Homo sapiens [4]): 312; Ratio IC50 (Homo sapiens [5]): 389; Cmax [19]: 350 ng/mL; AUC(0-t) [20]: 5320 ng·h/mL; bioavailability [21]: 41%
2 | CN1CCC([C@@](C)(O)c2ccc3cnc(Nc4cc(N5CCOCC5)ncc4F)cc3n2)CC1 | 3.2 nM | 301 nM | 94 | 125 nM | 78 nM | 154 nM | 274 µM (≈ 128 µg/mL) | 38 | 7.9 ×10⁻⁶ cm/s | 0.53 | < 7 mL/min/kg | 69 mL/min/kg | < 13 mL/min/kg | 53 mL/min/kg | 9.4 L/kg | 2.7 h | 305 ng·h/mL | 19 ng/mL | 143 ng·h/mL | 16% | IC50 [22]: 1.2 nM; IC50 (HEK-293T): > 10000 nM
